Source: PubChem BioAssay (NCI)
Several values for one entry are separate records, joined by “and”; a condition that tells them apart may be missing. Equal entries are not always repeated.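 Grown in 96-well plates, cells were treated for 48 hours with each compound at five concentrations. Insufficient inhibition: endpoint recorded as highest concentration tested. Abbreviation: GI50, concentration required for 50% inhibition of growth. TGI: total growth inhibition.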

Assays:
Test in all cases: NCI tumour cell line growth inhibition, 48 h
[1] = test system: DMS 273 small cell lung
[2] = test system: DLD-1 colon
[3] = test system: RXF-631 renal
[4] = test system: KM20L2 colon
[5] = test system: XF 498 CNS
[6] = test system: DMS 114 small cell lung
[7] = test system: HOP-18 NSCLC
[8] = test system: M19-MEL melanoma
[9] = test system: MDA-N
[10] = test system: P388/ADR leukemia
[11] = test system: SN12K1 renal

Row | SMILES | TGI [1] [µM] | TGI [2] [µM] | TGI [3] [µM] | TGI [4] | TGI [5] [µM] | TGI [6] | TGI [7] [µM] | TGI [8] | further results
1 | N#CC(C(=O)/C(=N\NC(N)=O)C(C#N)c1ccccc1)c1ccccc1 (centres undefined) | > 100 | > 100 | > 100 | > 100 µM |  |  |  |  | 
2 | N/N=C(/Cc1nc2ccc(C(=O)c3ccccc3)cc2[nH]c1=O)C(=O)Nc1ccc([N+](=O)[O-])cc1[N+](=O)[O-] | > 100 |  |  | > 100 µM | > 100 | > 100 µM | > 100 | > 100 µM | GI50 [1]: > 100 µM; GI50 [6]: > 100000 nM; GI50 [8]: > 100 µM
3 | CCOC(=O)CC(NC(=O)c1[nH]cnc1/N=N/N(C)C)C(=O)OCC (centres undefined) | > 100 | > 100 |  |  |  | > 100 µM |  | > 100 µM | 
4 | CC(=O)[CH-]C(=O)c1ccccc1.CC(=O)[CH-]C(=O)c1ccccc1.O=S(=O)([O-])c1cc([O-])c2c([O-])cc(S(=O)(=O)[O-])cc2c1.[Na+].[Zr+4] |  |  |  | > 100 µM |  |  |  |  | GI50 [4]: > 100 µM
5 | CCNC(=O)OCc1c(COC(=O)NCC)c(-c2ccc(Cl)c(Cl)c2)n2c1CCC2 | 31.1 | 72.3 |  | 68.3 µM | 36.3 | 25.4 µM |  | 58.1 µM | 
6 | O=C(Nc1ccc(Cl)cc1Cl)OC(Cn1cncn1)c1ccc(Cl)cc1Cl (centres undefined) | 31.4 | 35 | 33.2 | 30.3 µM | 27.9 | 29.8 µM | 41.5 | 30.8 µM | 
7 | CC(=O)NNc1nc(C)c(C(/C=C/c2ccccc2O)=N/N=C(N)N)s1 |  |  |  |  |  |  |  |  | TGI [9]: > 100 µM
8 | COC(=O)C1=CC2C=CC(C1C(=O)OC)C1C(C(=O)OC)=C(C(=O)OC)C(C(=O)OC)=C(C(=O)OC)C21OC (centres undefined) | > 100 | > 100 | > 100 | > 100 µM |  | > 100 µM | > 100 | > 100 µM | 
9 | COc1cc(OC)cc(-c2cc(=O)c3cc4c(cc3[nH]2)OCO4)c1 | 3.31 | 36.4 |  | 0.652 µM | 2.58 | 0.726 µM | > 75.6 | > 100 µM | 
10 | O=C1C=CC(=O)c2c(O)c3c(c(O)c21)C[C@H](O)[C@H](O)[C@@H]3O |  |  |  |  |  |  |  |  | TGI [9]: 2.95 µM
11 | O=C(/C=C/c1cccc([N+](=O)[O-])c1)c1ccc([N+](=O)[O-])cc1 | > 100 | > 100 | > 100 | > 100 µM | > 100 |  |  | > 100 µM | 
12 | CCCCCC/C=C\CCCCCCCCCC1=C(CN2CCN(C)CC2)C(=O)C=C(OC)C1=O |  |  |  |  |  |  |  |  | TGI [9]: 21.1 µM
13 | COc1cccc(C2SC(N)=Nc3c2c(C)nn3C(=O)Cc2ccccc2)c1 (centres undefined) |  |  |  |  |  |  |  |  | TGI [9]: > 100 µM
14 | O=C1c2ccccc2C2CCC1c1ccccc12 (centres undefined) | 71.4 | > 100 |  | > 100 µM | 91.6 | 57 µM | > 100 | 96.1 µM | 
15 | CN(/N=C/c1ccnc2ccccc12)c1c([N+](=O)[O-])cc([N+](=O)[O-])cc1[N+](=O)[O-] | > 100 | > 100 |  | > 100 µM | > 100 | > 100 µM | > 100 | > 100 µM | 
16 | CNS(=O)(=O)NNS(=O)(=O)c1ccc(OC)cc1 | > 100 | > 100 | > 100 | > 100 µM | > 100 | > 100 µM |  | > 100 µM | 
17 | CC1=CC(C)(C)NN1C1=NS(=O)(=O)c2ccccc2N1C |  |  |  |  |  |  |  |  | TGI [9]: > 100 µM
18 | CC(C)CCCCCCCCCCCCC(=O)NCC(=O)NC1C(O)C(O)C(Nc2ncnc3nc[nH]c23)OC1C(O)CO (centres undefined) | 0.00174 | 3.83 |  | 0.0222 µM and 0.0138 µM |  | 0.0278 µM and 0.00687 µM | 0.00108 | 0.0409 µM and 0.0156 µM | GI50 [6]: 5 nM; GI50 [9]: < 0.01 nM; GI50 [10]: 5 nM; GI50 [8]: 0.005 µM; GI50 [2]: 0.0104 µM; GI50 [11]: 6.46 nM; TGI [11]: 332 nM and 223 nM; GI50 [4]: 0.005 µM
19 | CC1C2C=C(O)C(=O)C(C2=O)C1c1ccccc1 (centres undefined) | > 100 | > 100 | > 100 | > 100 µM |  |  |  | > 100 µM | 
20 | Cn1c2c(c3ccccc31)CCN1C(=O)CCC21 (centres undefined) |  |  |  |  |  |  |  |  | TGI [9]: > 10 µM
21 | COc1c(-c2ccccc2)nc2ccc(Oc3ccccc3)nn12 | > 100 | > 100 |  | > 100 µM | 66.9 | > 87.7 µM | > 87.1 | > 100 µM | 
22 | CCc1nc2ccc(N=Nc3c(O)ccc4ccccc34)cc2[nH]1 | 35.3 | 57.3 |  | 36.9 µM |  | 35.1 µM |  | 33.8 µM | TGI [9]: 51.5 µM
23 | Cn1cc2ccccc2c1-c1nc(F)nc(Oc2ccc3c(c2)CC[C@@H]2C3CC[C@@]3(C)C2C[C@H](O)[C@@H]3O)n1 (some centres undefined) | 22 | 22.1 |  | 29.4 µM | 60.3 | 25 µM | 54.8 | 41.9 µM | 
24 | COC(=O)C1C(=O)O[C@@H](c2cc(OC)c(OC)cc2OC)C1C(=O)OC (mixture of isomers) | > 100 | > 100 | > 100 | > 100 µM | > 100 | > 100 µM |  | > 100 µM | 

Row | SMILES | TGI [1] [µM] | TGI [2] [µM] | TGI [3] [µM] | TGI [4] | TGI [5] [µM] | TGI [6] | TGI [7] [µM] | TGI [8] | further results
25 | O=c1c(Cl)c(Cl)cnn1CCCl | 21 | 3.29 |  | 27.2 µM | 11.7 | 18.9 µM |  | 8.75 µM | 
26 | O=C(c1ccc(Cl)cc1)c1ccc(OCCCOc2ccc(C(=O)c3ccc(Cl)cc3)cc2Cl)c(Cl)c1 | > 100 | > 100 | > 100 | > 100 µM | > 100 | > 100 µM |  | > 100 µM | 
27 | O=C1C2C3CC(C4C5C=CC(C5)C34)C2C2C3CC(C12)C1C2C=CC(C2)C31 (centres undefined) | > 100 | > 100 | > 100 | > 100 µM | > 100 | > 100 µM | > 100 | > 100 µM | 
28 | Nc1ccccc1C(=O)CCC1C(=O)NC(=S)NC1=O | > 100 | > 100 | > 100 | > 100 µM |  | > 100 µM | > 100 | > 100 µM | TGI [9]: > 100 µM
29 | O=C(/C=C\c1cccc2ccccc12)c1ccc(Cl)cc1Cl | 34.8 | 40.8 | 74.3 | 91.8 µM |  | 30.8 µM | 48.1 | 35.9 µM | 
30 | COC1(OC)C2(Cl)C(Cl)=C(Cl)C1(Cl)C1C2C2CC1(C(=O)O)c1ccccc12 (centres undefined) | 41.2 | 35.6 | 42.8 | 62.8 µM |  | 39.9 µM | 93.9 | 38.3 µM | 
31 | CCOP(=O)(OCC)C(C(=O)OC)C(=O)C(=O)Nc1cccc(O)c1 (centres undefined) |  |  |  |  |  |  |  |  | TGI [9]: > 100 µM
32 | COC1OC2COC(C)(C)OC2C(OC(C)=O)C1NC(=O)N(CCCl)N=O (centres undefined) | > 100 | > 100 |  | > 100 µM | > 100 | > 100 µM | > 100 | > 100 µM | 
33 | CC(=O)[C@H]1CCC2[C@@H]3CC=C4C[C@@H]([O-])CC[C@]4(C)C3CC[C@@]21C.CC(=O)[C@H]1CCC2[C@@H]3CC=C4C[C@@H]([O-])CC[C@]4(C)C3CC[C@@]21C.CC(=O)[CH-]C(=O)c1ccccc1.CC(=O)[CH-]C(=O)c1ccccc1.Cl.[Ti+4] (some centres undefined) | > 100 | > 100 |  | > 100 µM |  |  | > 100 | > 100 µM | GI50 [1]: 30.3 µM; GI50 [7]: 42.9 µM; GI50 [8]: 43.5 µM; GI50 [2]: 27.4 µM; GI50 [4]: 10.8 µM
34 | S=c1ncc2c([nH]1)C1c3ccccc3C2c2ccccc21 | > 100 |  |  | > 100 µM |  | > 100 µM |  | > 100 µM | 
35 | NS(=O)(=O)c1cc(C(=O)O)c(O)c2ccccc12 |  |  |  |  |  |  |  |  | TGI [9]: > 100 µM
36 | Nc1c(Cl)ncnc1NCCCCCCCCCCCCNc1ncnc(Cl)c1N | 10.2 | > 100 | 9.72 | > 100 µM | 3.02 | 2.49 µM | 83.1 | 18.8 µM | 
37 | CN(/N=C\c1ccnc2ccccc12)c1ccc([N+](=O)[O-])cc1 | > 100 |  | > 100 | > 100 µM | > 100 |  |  | > 100 µM | 
38 | O=[N+]([O-])c1cc([N+](=O)[O-])c(Nn2c3ccccc3c3ccccc32)c([N+](=O)[O-])c1 |  |  |  |  |  |  |  |  | TGI [9]: 12.2 µM
39 | CCOC(=O)C(C#N)C1=CC(=O)C(=O)c2ccc(O)cc21 (centres undefined) |  |  |  |  |  |  |  |  | TGI [9]: 32.7 µM
40 | CC(=O)[CH-]C(=O)c1ccccc1.CC(=O)[CH-]C(=O)c1ccccc1.CC(=O)[CH-]C(=O)c1ccccc1.[Nd+3].[OH3+] |  | > 100 |  | > 100 µM |  |  |  | > 100 µM | GI50 [8]: 31.4 µM; GI50 [2]: 25 µM; GI50 [4]: 38 µM
41 | COc1cc(/C=N/N=C(\N)NO)c(Cl)cc1O |  |  |  |  |  | > 100 µM |  | > 100 µM | 
42 | NC1=NN(c2ccccc2)C(=O)C1C(=O)C(=O)Nc1ccc(Cl)c(Cl)c1 (centres undefined) | > 100 | > 100 | > 100 | > 100 µM |  | > 100 µM | > 100 | > 100 µM | 
43 | COC(=O)[C@@]12CC(C(C)C)[C@H]3CC(C(=O)C=C1OC)[C@H]32 (some centres undefined) | > 100 | > 100 | > 100 | > 100 µM | > 100 | > 100 µM | > 100 | > 100 µM | 
44 | C/C=C1/CC(C)C(C)(O)C(=O)OCC2C(O)CN3CCC(OC1=O)C23 (centres undefined) |  |  |  |  |  |  |  |  | TGI [9]: > 100 µM
45 | COc1ccc(OC)c(/C=N/N=C(\N)NO)c1 | > 100 | > 100 | > 100 |  | 58.3 | > 100 µM |  | > 100 µM | 
46 | CC1(C)CCCC(C)(C2CCC3(C)C2C(O)CC2C4(C)CCC(O)C(C)(C)C4CCC23C)O1 (centres undefined) |  |  |  |  |  |  |  |  | TGI [9]: > 100 µM
47 | Cc1cc(=O)n(-c2cc3cccccc-3n2)[nH]1 |  | > 100 |  | > 100 µM | 7.46 | 7.73 µM | 85.2 | 22.3 µM | 
